Assay results as given in patent US7511041B2, “Fused azole-pyrimidine derivatives” (Bayer Pharmaceuticals Corporation, priority 2002, dated 2009).
Structures can show the parent of a compound that is named as a salt. Where two headings read alike, the source gives them in different places.

Assays:
[1] = biological target: T1, Recombinant human PI3Kγ (full length human PI3K p110γ) (Homo sapiens, UniProt P48736); experiment: Kinase assay of PI3Kγ (solid-phase lipid kinase assay); assay type: biochemical
T1 construct: full length human PI3K p110γ fused with a His6-tag at the C-terminus; His6 (C); purchased ALEXIS BIOCHEMICALS #201-055-C010; host or cells: S. frugiperda 9 insect cells
T1 sequence (P48736 whole entry, the tested form may be a part): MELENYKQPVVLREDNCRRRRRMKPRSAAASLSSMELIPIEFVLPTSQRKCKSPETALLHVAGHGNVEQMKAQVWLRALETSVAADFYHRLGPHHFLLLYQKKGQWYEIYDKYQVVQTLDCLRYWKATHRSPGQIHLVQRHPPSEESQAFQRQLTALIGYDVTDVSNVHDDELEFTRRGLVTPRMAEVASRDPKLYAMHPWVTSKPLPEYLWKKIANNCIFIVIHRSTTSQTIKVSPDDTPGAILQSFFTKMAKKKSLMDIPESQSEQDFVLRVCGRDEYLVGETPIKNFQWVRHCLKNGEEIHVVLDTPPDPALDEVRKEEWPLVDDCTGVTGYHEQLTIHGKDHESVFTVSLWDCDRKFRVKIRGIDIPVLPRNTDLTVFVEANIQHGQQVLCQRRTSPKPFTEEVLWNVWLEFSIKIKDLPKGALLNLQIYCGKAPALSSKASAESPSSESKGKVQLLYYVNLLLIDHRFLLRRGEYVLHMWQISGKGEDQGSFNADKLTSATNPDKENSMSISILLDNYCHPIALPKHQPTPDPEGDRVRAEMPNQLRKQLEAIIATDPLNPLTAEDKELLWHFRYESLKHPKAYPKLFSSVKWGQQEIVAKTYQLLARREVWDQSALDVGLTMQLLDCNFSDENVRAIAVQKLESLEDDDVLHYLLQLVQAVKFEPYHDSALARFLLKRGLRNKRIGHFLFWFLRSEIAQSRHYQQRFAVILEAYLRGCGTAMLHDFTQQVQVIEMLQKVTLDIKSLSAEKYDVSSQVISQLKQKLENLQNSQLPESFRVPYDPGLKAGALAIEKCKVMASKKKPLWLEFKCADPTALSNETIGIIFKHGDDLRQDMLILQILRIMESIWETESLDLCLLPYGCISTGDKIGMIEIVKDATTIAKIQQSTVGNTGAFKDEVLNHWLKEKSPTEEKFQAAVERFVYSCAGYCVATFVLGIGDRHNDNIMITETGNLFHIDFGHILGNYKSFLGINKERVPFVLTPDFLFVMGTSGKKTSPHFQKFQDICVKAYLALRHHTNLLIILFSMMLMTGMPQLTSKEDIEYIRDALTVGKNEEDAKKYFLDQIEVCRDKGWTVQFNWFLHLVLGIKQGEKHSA

[2] = biological target: PI3Kβ (heterocomplex of p110β and GST-p85α) (UniProt Q9Z1L0); experiment: Isozyme selectivity test: kinase assay of PI3Kβ; assay type: biochemical; settings: activity class of IC50, read-out: In vitro PI3K-β inhibitory activity
Experimental: [Isozyme Selectivity Test in PI3K]
{Determination of IC50 Values of Compounds in Kinase Assay of PI3Kβ}
Recombinant baculovirus of PI3Kβ p110β and GST-p85α were obtained from Dr. Katada (University of Tokyo). Recombinant PI3K heterocomplex of p110β and GST-p85α were co-expressed in insect cells according to manufacture's instruction (Pharmingen, San Diego, Calif.), and purified with glutathione affinity column. Kinase assay of PI3Kβ was prepared in a similar manner as described in the part of [Determination of IC50 values of compounds in kinase assay of PI3Kγ].

[3] = activity class of IC50, read-out: In vitro PI3K-γ inhibitory activity
[4] = in vitro PI3K-γ inhibitory activity, class symbols, read-out: in vitro PI3K-gamma
[5] = Table 1, isozyme not given, read-out: in vitro
[6] = in vitro PI3K-γ inhibitory activity, class symbols A-D, read-out: in vitro PI3K-gamma

Structure (SMILES) | melting point | IC50 [1, 5] [nM] | further results
O=C(NC1=Nc2ccccc2C2=NCCN12)c1cccnc1 [Example 2-1, N-(2,3-Dihydroimidazo[1,2-c]quinazolin-5-yl)nicotinamide] | 238 to 239 °C (dec.) | – | IC50 [1, 3]: < 100 nM; IC50 [2]: 100 to 500 nM
CC(=O)Nc1ccc(C(=O)NC2=Nc3cc(N4CCOCC4)ccc3C3=NCCN23)cn1 [Example 2-3, 6-(Acetamido)-N-[8-(morpholin-4-yl)-2,3-dihydroimidazo[1,2-c]quinazolin-5-yl]nicotinamide] | – | – | IC50 [1, 3]: < 100 nM; IC50 [2]: 500 to 2000 nM
COc1c(OCCCC(=O)O)ccc2c1N=C(/C=C(\O)c1cccnc1)N1CCN=C21 [Example 1-6, 4-{[5-(2-Hydroxy-2-pyridin-3-ylvinyl)-7-methoxy-2,3-dihydroimidazo[1,2-c]quinazolin-8-yl]oxy}butanoic acid] | – | – | IC50 [1, 3]: < 100 nM; IC50 [2]: 100 to 500 nM
COc1c(O)ccc2c1N=C(/C=C(\O)c1cccnc1)N1CCN=C21 [Example 1-4, 5-(2-Hydroxy-2-pyridin-3-ylvinyl)-7-methoxy-2,3-dihydroimidazo[1,2-c]quinazolin-8-ol hydrochloride] | – | – | IC50 [1, 3]: < 100 nM; IC50 [2]: 500 to 2000 nM
CC(=O)Nc1ccc(C(=O)NC2=Nc3cc(N4CCOCC4)ccc3C3=NCCN23)cn1 [Example 2-4, 6-(Acetamido)-N-[8-(morpholin-4-yl)-2,3-dihydroimidazo[1,2-c]quinazolin-5-yl]nicotinamide hydrochloride] | – | – | IC50 ([2]; hydrochloride): 100 to 500 nM
O/C(=C\C1=Nc2cc(Cl)ccc2C2=NCCN12)c1ccccc1 [Example 1-190] | 186 to 188 °C | 500 to 2000 | –
Cc1ccc2c(c1OCCN1CCOCC1)N=C(/C=C(\O)c1cccnc1)N1CCN=C21 [Example 1-39] | 217 °C | 100 to 500 | –
O/C(=C\C1=Nc2ncccc2C2=NCCN12)c1ccc2[nH]cnc2c1 [Example 1-159] | > 300 °C | < 100 | –
CCCNc1ccc(/C(O)=C/C2=Nc3ccccc3C3=NCCN23)cn1 [Example 1-140] | 197 °C | 100 to 500 | –
COc1c(C)ccc2c1N=C(/C=C(\O)c1ccc3[nH]cnc3c1)N1CCN=C21 [Example 1-34] | > 285 °C | < 100 | –
O=C(NCCc1ccc2c(n1)N=C(/C=C(\O)c1cccnc1)N1CCN=C21)N1CCOCC1 [Example 1-204] | 262 °C | 500 to 2000 | –
COc1c(OCc2nn[nH]n2)ccc2c1N=C(/C=C(\O)c1cccnc1)N1CCN=C21 [Example 1-196] | 229 to 231 °C | < 100 | –
COc1cc2c(c(OC)c1C)N=C(/C=C(\O)c1cccnc1)N1CCN=C21 [Example 1-62] | 278 °C | < 100 | –
Cl.O/C(=C\C1=Nc2c(O)cccc2C2=NCCN12)c1cccnc1 [Example 1-83] | > 250 °C | 100 to 500 | –
N#Cc1ccc(/C(O)=C/C2=Nc3ccccc3C3=NCCN23)cc1 [Example 1-172] | 260 to 264 °C | > 2000 | –
CN(C)CCOc1cccc2c1N=C(/C=C(\O)c1cccnc1)N1CCN=C21 [Example 1-86] | 186 to 187 °C | 100 to 500 | –
CNc1ccc(/C(O)=C/C2=Nc3ccccc3C3=NCCN23)cn1 [Example 1-139] | 232 to 237 °C | < 100 | –
O=C(NC1=Nc2ccccc2C2=NCCN12)c1ccco1.O=C(O)C(F)(F)F [Example 2-300] | 230 to 232 °C | – | IC50 [1, 6]: 100 to 500 nM
O/C(=C\C1=Nc2ccccc2C2=NCCN12)c1ccc[nH]1 [Example 1-150] | 247 °C | 100 to 500 | –
O/C(=C\C1=Nc2c(OCCN3CCOCC3)cccc2C2=NCCN12)c1cccnc1 [Example 1-84] | 195 to 196 °C | 100 to 500 | –
COc1c(OCCN(C)C)ccc2c1N=C(/C=C(\O)c1cccnc1)N1CCN=C21 [Example 1-19] | 183 to 184 °C | 100 to 500 | –
COCOc1ccc2c(c1OC)N=C(/C=C(\O)c1cccnc1)N1CCN=C21 [Example 1-3, 2-[7-Methoxy-8-(methoxymethoxy)-2,3-dihydroimidazo[1,2-c]quinazolin-5-yl]-1-pyridin-3-ylethylenol] | 215 to 216 °C | – | IC50 [1, 3]: 100 to 500 nM
CC(=O)Nc1ccc(/C(O)=C/C2=Nc3c(C)cccc3C3=NCCN23)cn1 [Example 1-77] | > 285 °C | < 100 | –
COc1ccc2c(c1OCCN1CCOCC1)N=C(/C=C(\O)c1cccnc1)N1CCN=C21 [Example 1-36] | 197 °C | < 100 | –
Nc1ccc(C(=O)NC2=Nc3ccccc3C3=NCCN23)cc1.O=C(O)C(F)(F)F [Example 2-163] | 232 °C (dec.) | – | IC50 [1, 4]: 100 to 500 nM

Now from value to compound, other results behind:

melting point | IC50 [1, 5] [nM] | Structure (SMILES) | further results
289 °C | – | O=C(NC1=Nc2cc(O)ccc2C2=NCCN12)c1cccnc1 [Example 2-5, N-(8-Hydroxy-2,3-dihydroimidazo[1,2-c]quinazolin-5-yl)nicotinamide] | IC50 [1, 3]: 100 to 500 nM; IC50 [2]: 500 to 2000 nM
265 to 269 °C | – | CS(=O)(=O)Nc1cncc(C(=O)NC2=Nc3ccccc3C3=NCCN23)c1 [Example 2-143] | IC50 [1, 4]: < 100 nM
226 °C | – | O=C(NC1=Nc2cc(C(F)(F)F)ccc2C2=NCCN12)c1cccs1 [Example 2-349] | IC50 [1, 6]: 100 to 500 nM
243 °C (dec.) | – | Cl.O=C(NC1=Nc2cc(OCCCO)ccc2C2=NCCN12)c1cccnc1 [Example 2-200] | IC50 [1, 4]: 100 to 500 nM
250 °C (dec.) | – | O=C(NC1=Nc2cc(N3CCOCC3)ccc2C2=NCCN12)c1ccc2[nH]cnc2c1 [Example 2-10] | IC50 [1, 4]: 100 to 500 nM
278 °C (dec.) | – | NS(=O)(=O)c1ccc(C(=O)NC2=Nc3ccccc3C3=NCCN23)cc1 [Example 2-247] | IC50 [1, 6]: 500 to 2000 nM
127 °C | – | O=C(NC1=Nc2cc(OCCCO)ccc2C2=NCCN12)c1cccnc1 [Example 2-199] | IC50 [1, 4]: < 100 nM
298 to 299 °C | – | Cl.O=C(NC1=Nc2ccc(-c3ccco3)cc2C2=NCCN12)c1cccnc1 [Example 2-97] | IC50 [1, 4]: 100 to 500 nM
280 °C (dec.) | – | CC(C)(C)OC(=O)Nc1cccc(C(=O)NC2=Nc3ccccc3C3=NCCN23)c1 [Example 2-265] | IC50 [1, 6]: > 2000 nM
196 to 197 °C | – | O=C(NC1=Nc2ccccc2C2=NCCN12)c1cccc(Cl)c1 [Example 2-227] | IC50 [1, 6]: > 2000 nM
121 to 122 °C | – | CCCC(=O)NC1=Nc2ccccc2C2=NCCN12 [Example 2-328] | IC50 [1, 6]: > 2000 nM
128 °C | – | O/C(=C\c1nc2ccccc2c2nccn12)c1cccs1 [Example 3-1, (Z)-2-Imidazo[1,2-c]quinazolin-5-yl-1-(2-thienyl)ethenol] | IC50 [1, 3]: > 2000 nM
193 to 194 °C | – | Cc1ncccc1C(=O)NC1=Nc2ccccc2C2=NCCN12 [Example 2-131] | IC50 [1, 4]: 100 to 500 nM
267 °C (dec.) | – | O=C(NC1=Nc2ccccc2C2=NCCN12)c1ccc(-n2ccnc2)cc1 [Example 2-268] | IC50 [1, 6]: > 2000 nM
277 to 279 °C | – | Cc1nc2ccccn2c1C(=O)NC1=Nc2ccccc2C2=NCCN12 [Example 2-170] | IC50 [1, 4]: 100 to 500 nM
306 to 307 °C | – | COc1ccc2c(c1OC)N=C(NC(=O)c1ccc(NC(C)=O)nc1)N1CCN=C21 [Example 2-48] | IC50 [1, 4]: < 100 nM
291 °C (dec.) | – | COc1cc(C(=O)NC2=Nc3ccccc3C3=NCCN23)cc(OC)c1OC.Cl [Example 2-240] | IC50 [1, 6]: > 2000 nM
269 °C | – | CN(C)c1ccc2c(c1)C1=NCCN1C(NC(=O)c1cccnc1)=N2 [Example 2-345] | IC50 [1, 6]: 500 to 2000 nM
216 to 218 °C | – | COc1c(C)cc(C(=O)NC2=Nc3ccccc3C3=NCCN23)cc1C [Example 2-220] | IC50 [1, 6]: > 2000 nM
275 °C | – | Cl.O=C(NC1=Nc2cc(C(F)(F)F)ccc2C2=NCCN12)c1cccnc1 [Example 2-34] | IC50 [1, 4]: < 100 nM
189 °C | – | CC(=O)NC1=Nc2ccccc2C2=NCCN12 [Example 2-326] | IC50 [1, 6]: > 2000 nM
209 °C | – | N#CCOc1ccc2c(c1)C1=NCCN1C(NC(=O)c1cccnc1)=N2 [Example 2-213] | IC50 [1, 6]: 100 to 500 nM
149 to 150 °C | – | O=C(COc1ccccc1)NC1=Nc2ccccc2C2=NCCN12 [Example 2-325] | IC50 [1, 6]: > 2000 nM
278 °C | – | Cl.O=C(NC1=Nc2cc(Br)ccc2C2=NCCN12)c1ccc2[nH]cnc2c1 [Example 2-45] | IC50 [1, 4]: < 100 nM
> 280 °C | – | Cl.O=C(NC1=Nc2c(Cl)cccc2C2=NCCN12)c1ccc2[nH]cnc2c1 [Example 2-106] | IC50 [1, 4]: 100 to 500 nM
289 °C (dec.) | – | CCOC(=O)c1cc(C(=O)NC2=Nc3ccccc3C3=NCCN23)cc(C(=O)OCC)c1 [Example 2-274] | IC50 [1, 6]: > 2000 nM
224 to 225 °C | – | O=C(NC1=Nc2ccccc2C2=NCCN12)c1ccncc1 [Example 2-278] | IC50 [1, 6]: 500 to 2000 nM
233 °C (dec.) | – | Cc1nc(C)c(C(=O)NC2=Nc3cc(N4CCOCC4)ccc3C3=NCCN23)s1 [Example 2-16] | IC50 [1, 4]: 100 to 500 nM
